The source of these data is article PMC11359932 (Viruses, 2024).

Where two headings read alike, the source gives them in different places.

For data set [1], the target named is T1, SARS-CoV-2 PLpro (Severe acute respiratory syndrome coronavirus 2, UniProt P0DTD1). The data set is described as follows: biochemical. The note with it: for Fold increase of IC50 in presence of Tween-20: 0.01% Tween-20 versus none; for IC50: CIY substrate.
The subject of data set [2] is SARS-CoV-2 WA1 strain. The data set is described as follows: Antiviral plaque reduction assay (PRA) in Vero-E6 cells. As to conditions: read-out: EC50-PRA, MOI 0.01, Vero-E6 cells.
Data set [3] addresses T1, SARS-CoV-2 PLpro. The data set is described as follows: Surface plasmon resonance binding to immobilized PLpro. As to conditions: SPR, buffer with Tween-20, 25 °C.
Data set [4] has as its target T1, SARS-CoV-2 PLpro. The experiment in a line: Inhibition mechanism, Lineweaver-Burk plot with peptide-AMC substrate. It is filed as biochemical. The note with it: 40 nM PLpro.
For data set [5], the system named is SARS-CoV-2 Omicron (B.1.1.529). The data set is described as follows: microbe, parasite or virus in culture. In kind it is cell-based.
The nature of data set [6]: Cellular cytotoxicity (CCK-8 / WST assay). It is filed as cell-based. As to conditions: African green monkey, Vero CCL81 cells; 48 h treatment.
A further data set concerns the target USP25 (Homo sapiens, UniProt Q9UHP3). The data set is described as follows: USP25 selectivity FRET assay (CFP-ubiquitin-YFP substrate). As to conditions: for SI (selectivity index): IC50-USP25/IC50-PLpro. In kind it is biochemical.
Data set [7] relates to SARS-CoV-2 WA1 strain. The data set is described as follows: Antiviral immunofluorescence assay (IFA) in Vero-E6 cells, WA1 strain. It is filed as cell-based. As to conditions: Severe acute respiratory syndrome coronavirus 2, Vero C1008, MOI 0.01, Vero-E6 cells.
The next data set relates to SARS-CoV-2. Set-up: method as in earlier work. As to conditions: viral loads and survival rates; cited from earlier work.
For the next data set, the system named is SARS-CoV PLpro. The note with it: read-out: IC50 against SARS-CoV PLpro; cited from earlier work.
[8] abbreviates: IC50-PLpro-tw, with 0.01% Tween-20.

Chain of USP25 (Q9UHP3 157-706): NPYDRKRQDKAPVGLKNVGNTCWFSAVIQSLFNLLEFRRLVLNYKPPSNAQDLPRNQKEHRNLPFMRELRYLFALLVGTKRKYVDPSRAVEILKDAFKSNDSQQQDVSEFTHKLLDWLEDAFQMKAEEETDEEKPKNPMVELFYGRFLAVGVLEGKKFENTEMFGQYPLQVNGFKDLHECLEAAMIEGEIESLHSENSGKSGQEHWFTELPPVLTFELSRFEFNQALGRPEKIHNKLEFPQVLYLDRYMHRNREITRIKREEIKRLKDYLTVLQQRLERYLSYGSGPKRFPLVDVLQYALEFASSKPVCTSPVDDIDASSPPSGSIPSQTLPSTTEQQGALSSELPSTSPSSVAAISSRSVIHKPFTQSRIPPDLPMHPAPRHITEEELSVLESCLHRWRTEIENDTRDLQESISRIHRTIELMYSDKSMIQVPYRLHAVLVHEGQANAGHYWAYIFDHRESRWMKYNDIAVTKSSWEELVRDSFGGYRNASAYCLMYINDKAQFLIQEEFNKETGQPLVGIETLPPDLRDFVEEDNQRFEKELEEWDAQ

On to `CN1CCN(c2ccc([N+](=O)[O-])c3no[n+]([O-])c23)CC1` [NSC207895], for which, at SARS-CoV-2 PLpro [1], the “Fold increase of IC50 in presence of Tween-20” value is recorded as “more than 5 fold”. For the same compound, the 50% inhibitory concentration (IC50) on SARS-CoV-2 PLpro [1] (IC50-PLpro, without Tween-20) came to 0.9 µM; at SARS-CoV-2 PLpro [1] (setting [8]) it was 5 µM.
Consider `COC(=O)c1cc2c(n1S(=O)(=O)c1ccc(C)cc1)C(=O)C(=O)c1[nH]cc(C(=O)OCc3ccccc3)c1-2` [NSC679525], for which the EC50 in the data set with SARS-CoV-2 WA1 strain [2] came to 0.4 µM; in data set [5] (Severe acute respiratory syndrome coronavirus 2, Vero C1008, read-out: EC50-Omi), 5.42 µM; in data set [5] (read-out: EC50-Omi) it was 5.4 µM; with SARS-CoV-2 WA1 strain [7], 2.8 µM. The same compound gave a Kd at SARS-CoV-2 PLpro [3] of 4.1 µM. Further, the “Putative Mode of Action (mechanism of inhibition)” value at SARS-CoV-2 PLpro [4] is “Non-competitive”. Moreover, in [6], the half-maximal cytotoxic concentration (CC50) at 48 h worked out at 18.6 µM. In addition, the IC50 on USP25 (CFP-ubiquitin-YFP substrate, without Tween-20) turned out to be 41 µM; against SARS-CoV-2 PLpro [1] (IC50, 5 Min Incubation, 5 min preincubation with the enzyme), 16.8 µM; at SARS-CoV-2 PLpro [1] (IC50, 60 Min Incubation, 60 min preincubation with the enzyme) it was 10.2 µM; at SARS-CoV-2 PLpro [1] (IC50-PLpro, without Tween-20) it was 6 µM; on SARS-CoV-2 PLpro [1] (setting [8]), 11 µM. In addition, the figures for the “SI (selectivity index)” value at USP25 and on USP25 (listed as 679525) were over 4.7 and 6.8, respectively.
Regarding `COC(=O)C1(C)Cc2cc(OC(C)=O)c(OC(C)=O)cc2N1` (stereo not shown) [NSC341956], at SARS-CoV-2 PLpro [1], the “Fold increase of IC50 in presence of Tween-20” value is over 16 fold. The half-maximal inhibitory concentration (IC50) at SARS-CoV-2 PLpro [1] (with 0.01% Tween-20, read-out: IC50-PLpro-tw) was over 200 µM; at SARS-CoV-2 PLpro [1] (without Tween-20, read-out: IC50-PLpro) it was 12.4 µM.
With `CCn1ccc(-c2cc(-c3cnn(C)c3)cc([C@@H](C)NC(=O)c3cc(OCCN(C)C)ccc3C)c2)n1` [Jun12682], in the data set on SARS-CoV-2, the “Efficacy in mouse model infected with SARS-CoV-2” value is “efficacy in reducing viral loads and enhancing survival rates”.
As to `Cc1ccc(N)cc1C(=O)N[C@H](C)c1cccc2ccccc12` [GRL0617], the IC50 in the data set with SARS-CoV PLpro is […].
